Data from ChEMBL document CHEMBL1149710, “Two new alkaloids and active anti-hepatitis B virus constituents from Hypserpa nitida” (Bioorg Med Chem Lett, 2007).

What was measured:
Hepatitis B virus [1] = assay: Antiviral activity against HBV transfected Hep G2.2.15 cells assessed as inhibition of e antigen HBsAg secretion; assay type: functional, organism-based; details: HepG2 2.2.15
[2] = Selectivity index, ratio of CC50 for human Hep G2.2.15 cells to IC50 for surface antigen HBsAg secretion in HBV transfected Hep G2.2.15 cells; assay type: functional
[3] = Selectivity index, ratio of CC50 for human Hep G2.2.15 cells to IC50 for HBV e antigen secretion in HBV transfected Hep G2.2.15 cells; assay type: functional
Hepatitis B virus [4] = assay: Antiviral activity against HBV transfected Hep G2.2.15 cells assessed as inhibition of surface antigen HBsAg secretion; assay type: functional, organism-based; details: HepG2 2.2.15
[5] = Cytotoxicity against human Hep G2.2.15 cells; assay type: functional; details: HepG2 2.2.15

| Structure (SMILES) | IC50 (Hepatitis B virus [1]) [mM] | IC50 (Hepatitis B virus [4]) [mM] | Ratio CC50/IC50 [2] | Ratio CC50/IC50 [3] | CC50 [5] [mM] |
| --- | --- | --- | --- | --- | --- |
| COc1ccc(C[C@H]2c3cc(O)c(OC)cc3CCN2C)cc1O [(S)-RETICULINE] | > 2.99 | 2.14 | <1 | <1 | 1.91 |
| COC1=CC(=O)[C@@]2([C@@H]1O)[C@@H](Cl)C[C@@]13C(OC)=C(OC)C(=O)C[C@@]21CCN3C [ACUTUMINE] | > 2.98 | > 2.99 |  |  | > 2.99 |
| COC1=CC(=O)[C@]2([C@@H](Cl)C[C@]34NCC[C@]23CC(=O)C(OC)=C4OC)[C@H]1O [DAURICUMIDINE] | > 3.85 | 0.45 | 4.13 | <1 | 1.86 |
| COC1=CC(=O)[C@]2([C@@H](Cl)C[C@@]34C(OC)=C(OC)C(=O)C[C@@]23CCN4C)[C@H]1O [DAURICUMINE] | > 3.29 | 1.31 | 1.67 | <1 | 2.19 |
| COc1cc2c(cc1O)C[C@H]1c3c(cc(OC)c(O)c3-2)CC[N+]1(C)C [LAURIFOLINE] | > 3.68 | > 3.68 |  |  | > 3.68 |
| COc1ccc2c(c1O)-c1c(O)c(OC)cc3c1[C@H](C2)[N+](C)(C)CC3 [MAGNOFLORINE] | > 4.11 | > 4.11 |  |  | > 4.11 |
| COc1c(O)cc2c(c1OC)C=[N+](C)CC2 [PHENOLBETAIN] | > 4.52 | 2.37 | <1 | <1 | 2.18 |
| COc1cc2c3c(c1OC)C1(C=CC(=O)C=C1)C[C@H]3N(C)CC2 [PRONUCIFERINE] | > 4.18 | 0.042 | 1.19 | <1 | 0.05 |

Now from value to molecule, other results behind:

| IC50 (Hepatitis B virus [1]) [mM] | IC50 (Hepatitis B virus [4]) [mM] | Structure (SMILES) | Ratio CC50/IC50 [2] | Ratio CC50/IC50 [3] | CC50 [5] [mM] |
| --- | --- | --- | --- | --- | --- |
| > 2.89 | 2.02 | COC1=CC(=O)[C@@]2([C@@H]1O)[C@@H](Cl)C[C@]13NCC[C@]21CC(=O)C(OC)=C3OC [ACUTUMIDINE] | >1.31 |  | > 2.89 |
| > 2.93 | > 2.93 | COC1=CC(=O)[C@]2(CC[C@@]34C(OC)=C(OC)C(=O)C[C@]32CCN4C)[C@@H]1O [DECHLOROACUTUMINE] |  |  | 2.93 |
| 3.69 | 0.008 | COc1cc2c3c(c1O)C1(C=CC(=O)C=C1)CC3N(C)CC2 (centres undefined) [GLAZIOVINE] | <1 | <1 | 0.007 |
| > 2.87 | 1.42 | CCN(CC)C1=CC(=O)[C@]2([C@@H](Cl)C[C@@]34C(OC)=C(OC)C(=O)C[C@@]23CCN4C)[C@H]1O [HYPSERPANINE A] | 1.57 | <1 | 2.23 |
| > 3.61 | > 3.61 | COc1ccc2c3c1-c1c(ccc(O)c1O)C[C@@H]3[N+](C)(C)CC2 [HYPSERPANINE B] |  |  | > 3.61 |
| 25.9 | 11.7 | Nc1ccn([C@@H]2CS[C@H](CO)O2)c(=O)n1 [LAMIVUDINE] | 2.56 | 1.16 | 30 |
